The results in this text go back to patent US11267826B2, “Penicillin-binding protein inhibitors” (priority 2017, dated 2022).

For one experiment, the target named is T1, E. coli PBP2 (Escherichia coli, UniProt P0AD65).
T1 construct: 100 μg's of total membrane protein extracts containing PBPs; endogenous in cells; host or cells: Escherichia coli K12, membrane protein fraction
Description: Bocillin FL competition binding assay, PBP2. On the set-up: species or system Escherichia coli K12. The conditions noted are these: 15 min pre-incubation. The procedure, abridged:
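E. coli K12 membrane extracts (100 µg protein) pre-incubated 15 min with compound (0.005–2,480 µg/mL) in pH 7 phosphate/350 mM NaCl, then labelled with Bocillin FL 30 min at 35°C; SDS-PAGE fluorescence (ex 450/em 520 nm), μg/mL reported. PBP1a/1b unresolved, reported combined.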

A further experiment has as its system S. aureus ATCC 29213. The experiment in a line: Broth microdilution MIC assay, S. aureus. The class given is cell-based. The following applies: Staphylococcus aureus, ATCC29213; broth microdilution, 16-20 hours at 37° C.; read-out: S. aureus 29213 MIC. In outline:
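Growth inhibition is measured by CLSI broth microdilution. Log-phase bacteria (5×10^5 CFU/mL starting density) are incubated with 2-fold compound dilutions in cation-supplemented MH broth for 16-20 hours at 37° C, and the MIC is scored visually.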

For experiment [1], the system named is E. coli DH5a with pLBII plasmid with no β-lactamase gene. Description: Broth microdilution MIC, engineered E. coli control strain (pLBII plasmid, no β-lactamase gene). It is filed as cell-based. The conditions noted are these: Escherichia coli, read-out: MIC, β-lactamase None. Here is the method: (§1) To determine the ability of test compounds to potentiate the inhibition of the growth of bacterial strains, classic cell based broth microdilution MIC assays were employed. MIC assays are performed according to CLSI methods except where otherwise noted (CLSI, 2011 and CLSI, 2009). The reference strain S. aureus ATCC 29213 and the hyper-permeable E. coli 901C were used to determine the ability of the PBP compounds to inhibit bacterial growth. Briefly, cryo-preserved bacterial cultures of clinical strains are streaked for isolation on appropriate agar medium, in this case Mueller Hinton II agar. Following incubation to allow formation of colonies these plates are sealed with parafilm and stored refrigerated for up to two weeks. For preparation of assay inocula and to ensure low variability, at least 5 colonies are picked from the agar plates with an inoculating loop and aseptically transferred to a culture tube containing 3 mL of Mueller-Hinton Broth (supplemented with divalent cations to required levels based on Manufacturers' certification). The broth culture is grown for 3-5 hours at 37° C. with shaking at 200 rpm. Meanwhile, 2-fold serial dilutions of test compounds are conducted in a 96 well plate with a final volume of 75 μL per well at 2-fold the final desired concentration. After the dilution plates are set up the growing cultures are then diluted in a cuvette containing MH II broth and the optical density is measured at 600 nm. Inocula are diluted such that 75 μL of this culture in Mueller-Hinton Broth results in a starting bacterial concentration of 5×10^5 CFU/mL when added to the dilution plates. The plates are incubated 16-20 hours at 37° C. The MIC is read visually as the lowest concentration well with no bacterial growth.
(§2) To determine if test compounds were affected by various known β-lactamases, the inhibition of the growth of engineered strains of Escherichia coli harboring select single β-lactamases were tested. […]

Experiment [2] deals with E. coli DH5a harboring SHV-5. The experiment in a line: Broth microdilution MIC, engineered E. coli expressing SHV-5. The conditions noted are these: Escherichia coli, read-out: MIC, β-lactamase SHV. The class given is cell-based. The procedure:
as §1, §2
On the technique in general: Dilution methods test growth across graded concentrations, often in twofold steps.

The test system of experiment [3] is E. coli DH5a harboring IMP-18. Description: Broth microdilution MIC, engineered E. coli expressing IMP-18. It is filed as cell-based. The conditions noted are these: Escherichia coli, read-out: MIC, β-lactamase IMP. Here is the method:
as §1, §2

T1 sequence (P0AD65 whole entry): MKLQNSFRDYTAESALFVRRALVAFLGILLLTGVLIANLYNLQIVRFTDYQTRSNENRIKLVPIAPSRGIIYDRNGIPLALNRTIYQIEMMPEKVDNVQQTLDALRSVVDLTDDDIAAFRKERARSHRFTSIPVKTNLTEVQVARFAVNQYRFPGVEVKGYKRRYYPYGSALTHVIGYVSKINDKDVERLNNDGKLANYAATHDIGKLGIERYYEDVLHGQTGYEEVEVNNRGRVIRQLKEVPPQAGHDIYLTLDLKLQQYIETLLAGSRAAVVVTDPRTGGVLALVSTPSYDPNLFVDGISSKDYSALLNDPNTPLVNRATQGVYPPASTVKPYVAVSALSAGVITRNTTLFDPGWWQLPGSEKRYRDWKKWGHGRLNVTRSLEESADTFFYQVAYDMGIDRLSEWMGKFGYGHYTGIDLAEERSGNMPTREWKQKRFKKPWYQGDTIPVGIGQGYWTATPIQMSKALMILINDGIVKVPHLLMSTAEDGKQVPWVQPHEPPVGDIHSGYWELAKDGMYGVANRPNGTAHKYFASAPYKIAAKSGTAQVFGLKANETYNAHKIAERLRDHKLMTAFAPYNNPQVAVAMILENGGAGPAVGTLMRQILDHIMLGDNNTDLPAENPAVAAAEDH

The MIC is the lowest concentration that inhibits growth of the organism. `Nc1nc(/C(=N/O)C(=O)N[C@H]2Cc3cccc(C(=O)O)c3OB2O)cs1` [Example 6, (R,Z)-3-(2-(2-aminothiazol-4-yl)-2-(hydroxyimino)acetamido)-2-hydroxy-3,4-dihydro-2H-benzo[e][1,2]oxaborinine-8-carboxylic Acid]: on E. coli PBP2, the “E. coli PBP2 Potency” value is “B (B represents a potency between 64 and 1000 μg/mL inclusive)”. Further, the MIC with S. aureus ATCC 29213 is under 64 µg/mL; in experiment [1], 16 µg/mL; in experiment [2], 16 µg/mL; in experiment [3], 16 µg/mL.
